Data published in US20230312491A1, “N-SUBSTITUTED 4-(5-PHENYL-1,3,4-OXADIAZOL-2-YL)ANILINE FOR THE TREATMENT AND PROPHYLAXIS OF HEPATITIS B VIRUS INFECTION” (priority 2020, published 2023).

Legend:
Type in all cases: cell-based
[1] = test system: HBeAg; test: PHH natural infection assay, HBeAg (alphalisa); details: Hepatitis B virus, Hepatocyte, 72 h, read-out: HBeAg IC50
Description: (§1) Detailed procedures regarding primary human hepatocyte (PHH) HBV natural infection assay are described as below. One tube of frozen PHH (10 million cells) is thawed in 37° C. water bath and then transferred to 20 mL of PHH thawing medium (Sigma, InVitroGRO HT Medium, Cat. S03319) with gently mixing. The cells were then centrifuged at […] for 5 min, the supernatant was discarded and the tube was refilled with 25 mL of PHH plating medium (Sigma, InVitroGRO CP Medium, Cat. S03317). The tube was shaken very gently to re-suspend all cells, and then 50 µl of cells were transferred to each well 384-well collagen I coated plate with appropriate liquid handling equipment, e.g. Integra VIAFLO384 or Agilent Bravo. The cells were then cultured for 24 hours in a cell incubator. For HBV infection, after PHH attachment on the culture plate, the plating medium was removed and replenished with PHH culture medium containing HBV virus. The PHH culture medium was prepared with Dulbecco’s Modified Eagle Medium (DMEM)/F12 (1: 1 in volume ratio) containing 10% fetal bovine serum (Gibco, Cat.10099141), 5 ng/mL human epidermal growth factor (Gibco, Cat.PHG0311L), 20 ng/mL dexamethasone (Sigma, Cat.D4902-100 mg), 250 ng/mL human recombinant insulin (Gibco, Cat.41400045) and 100 U/mL penicillin. HBV virus at 200 genome equivalent (GE) per cell with 4% PEG8000 (Sigma, Cat.P1458) containing culture medium were added to the PHH culture medium for infection. The cells were then cultured for 24 hours in cell incubator. Then the cell culture supernatant was removed. The HBV-infected PHH were cultured with sandwich culture method with PHH culture medium containing 1% DMSO and 0.25 mg/mL matrix gel for 72 hours. The supernatant was then refreshed with PHH culture medium containing different concentrations of testing compounds for two times with 72-hour interval. At the end of treatment, the supernatant was collected for viral markers measurements, including HBsAg, HBeAg, HBV DNA and cytotoxicity. HBsAg and HBeAg were detected using alphalisa method using their specific antibodies. For HBV DNA detection, HBV DNA Quantitative Fluorescence Diagnostic Kit (Sansure Biotech Inc.) was used following the manufacture’s protocol. Cytotoxicity was determined using Cell Counting Kit-8 (CCK8, Dojindo Molecular Technologies, Inc.).
(§2) The compounds of the present invention were tested for their capacity to inhibit HBsAg and HBeAg as described herein.

[2] = PHH natural infection assay, cytotoxicity (Cell Counting Kit-8); details: HBV-infected primary human hepatocytes, CCK8
Description: as §1

[3] = test system: HBsAg; test: PHH natural infection assay, HBsAg (alphalisa); details: Hepatitis B virus, Hepatocyte, 72 h, read-out: HBsAg IC50
Description: as §1, §2

SMILES	IC50 [1]	CC50 at 144 h [2]	IC50 [3]
O=C(Nc1ccc(-c2nnc(-c3ccccc3)o2)cc1)c1ccnnc1 [Example 24, N-[4-(5-phenyl-1,3,4-oxadiazol-2-yl)phenyl]pyridazine-4-carboxamide]	1.6 µM	> 100 µM	1.2 µM
O=C(Nc1ccc(-c2nnc(-c3ccccc3)o2)cc1)c1ccc(Cl)cc1 [Example 13, 4-chloro-N-[4-(5-phenyl-1,3,4-oxadiazol-2-yl)phenyl]benzamide]	4.43 µM	> 100 µM	5.62 µM
O=C(Nc1ccc(-c2nnc(-c3ccccc3)o2)cc1)c1cccc(Cl)n1 [Example 22, 6-chloro-N-[4-(5-phenyl-1,3,4-oxadiazol-2-yl)phenyl]pyridine-2-carboxamide]	1.59 µM	> 100 µM	0.96 µM
O=C(Nc1ccc(-c2nnc(-c3ccccc3)o2)cc1)c1ccc(F)cc1 [Example 12, 4-fluoro-N-[4-(5-phenyl-1,3,4-oxadiazol-2-yl)phenyl]benzamide]	6.33 µM	> 100 µM	6.2 µM
O=C(Nc1ccc(-c2nnc(-c3ccccc3)o2)cc1)c1cccc(OC(F)(F)F)c1 [Example 16, N-[4-(5-phenyl-1,3,4-oxadiazol-2-yl)phenyl]-3-(trifluoromethoxy)benzamide]	2.91 µM	> 100 µM	1.35 µM
